According to patent US20150065447A1, “SURVIVAL BENEFIT IN PATIENTS WITH SOLID TUMORS WITH ELEVATED C-REACTIVE PROTEIN LEVELS” (Incyte Corporation, priority 2013, published 2015):

What was measured:
[1] = target: T1, human JAK2 (a.a. 828-1132) (Homo sapiens, UniProt O60674); test: In vitro JAK Kinase Assay (HTRF), JAK2 (for JAK2/JAK1 ratio); type: biochemical; details: ratio of IC50s, 1 mM ATP
T1 construct: JAK2 (a.a. 828-1132); His tag (N); made in house; host or cells: insect cells (baculovirus)
Method: (§1) The catalytic activity of JAK1 and JAK2 was assayed by measuring the phosphorylation of a biotinylated peptide. The phosphorylated peptide was detected by homogenous time resolved fluorescence (HTRF). […] Reactions were carried out at room temperature for 1 hr and then stopped with 20 μL 45 mM EDTA, 300 nM SA-APC, 6 nM Eu-Py20 in assay buffer (Perkin Elmer, Boston, Mass.). Binding to the Europium labeled antibody took place for 40 minutes and HTRF signal was measured on a Fusion plate reader (Perkin Elmer, Boston, Mass.).

[2] = target: T2, human JAK1 (a.a. 837-1142) (Homo sapiens, UniProt P23458); test: In vitro JAK Kinase Assay (HTRF), JAK1; type: biochemical; details: 1 mM ATP
T2 construct: human JAK1 (a.a. 837-1142); His tag (N); made in house; host or cells: insect cells (baculovirus)
Method: as §1

T2 sequence (P23458 849-1154): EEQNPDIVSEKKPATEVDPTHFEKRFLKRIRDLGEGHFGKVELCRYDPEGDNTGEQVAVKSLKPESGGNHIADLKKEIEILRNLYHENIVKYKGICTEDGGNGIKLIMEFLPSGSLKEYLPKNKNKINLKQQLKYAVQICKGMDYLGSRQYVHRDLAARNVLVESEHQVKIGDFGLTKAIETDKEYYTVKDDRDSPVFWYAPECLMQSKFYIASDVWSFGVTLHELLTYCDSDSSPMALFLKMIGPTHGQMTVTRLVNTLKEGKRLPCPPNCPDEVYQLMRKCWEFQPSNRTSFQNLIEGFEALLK
T1 sequence (O60674 828-1132): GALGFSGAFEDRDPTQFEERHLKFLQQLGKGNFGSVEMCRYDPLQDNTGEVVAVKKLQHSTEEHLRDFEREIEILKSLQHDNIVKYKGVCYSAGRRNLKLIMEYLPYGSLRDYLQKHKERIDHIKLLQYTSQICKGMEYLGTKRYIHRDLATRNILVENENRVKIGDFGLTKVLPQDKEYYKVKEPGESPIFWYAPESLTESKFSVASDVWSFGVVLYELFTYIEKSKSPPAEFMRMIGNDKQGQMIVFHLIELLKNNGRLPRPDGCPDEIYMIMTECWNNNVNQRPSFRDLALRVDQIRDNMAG

JAK2/JAK1 [1] | IC50 [2] [nM] | Structure (SMILES)
>10 | < 10 | N#CCC1(n2cc(-c3ncnc4[nH]ccc34)cn2)CN([C@H]2CC[C@@H](Oc3cc(CCO)nc(C(F)(F)F)n3)CC2)C1 [Compound 18, (l-(cis-4-{[6-(2-hydroxyethyl)-2-(trifluoromethyl)pyrimidin-4-yl]oxy}cyclohexyl)-3-[4-(7H-pyrrolo[2,3-d]pyrimidin-4-yl)-1H-pyrazol-1-yl]azetidin-3-yl}acetonitrile]
>10 | < 10 | CCNCc1cc(O[C@H]2CC[C@@H](N3CC(CC#N)(n4cc(-c5ncnc6[nH]ccc56)cn4)C3)CC2)nc(C(F)(F)F)c1 [Compound 19, {l-(cis-4-{[4-[(ethylamino)methyl]-6-(trifluoromethyl)pyridin-2-yl]oxy}cyclohexyl)-3-[4-(7H-pyrrolo[2,3-d]pyrimidin-4-yl)-1H-pyrazol-1-yl]azetidin-3-yl}acetonitrile]
>10 | < 10 | CC(C)(O)c1cc(O[C@H]2CC[C@@H](N3CC(CC#N)(n4cc(-c5ncnc6[nH]ccc56)cn4)C3)CC2)nc(C(F)(F)F)c1 [Compound 20, {1-(cis-4-{[4-(1-hydroxy-1-methylethyl)-6-(trifluoromethyl)pyridin-2-yl]oxy}cyclohexyl)-3-[4-(7H-pyrrolo[2,3-d]pyrimidin-4-yl)-1H-pyrazol-1-yl]azetidin-3-yl}acetonitrile]
>10 | < 10 | N#CCC1(n2cc(-c3ncnc4[nH]ccc34)cn2)CN([C@H]2CC[C@@H](Oc3cc(CN4CC[C@@H](O)C4)cc(C(F)(F)F)n3)CC2)C1 [Compound 21, {1-(cis-4-{[4-{[(3R)-3-hydroxypyrrolidin-1-yl]methyl}-6-(trifluoromethyl)pyridin-2-yl]oxy}cyclohexyl)-3-[4-(7H-pyrrolo[2,3-d]pyrimidin-4-yl)-1H-pyrazol-1-yl]azetidin-3-yl}acetonitrile]
>10 | < 10 | N#CCC1(n2cc(-c3ncnc4[nH]ccc34)cn2)CN([C@H]2CC[C@@H](Oc3cc(CN4CC[C@H](O)C4)cc(C(F)(F)F)n3)CC2)C1 [Compound 22, {1-(cis-4-{[4-{[(3S)-3-hydroxypyrrolidin-1-yl]methyl}-6-(trifluoromethyl)pyridin-2-yl]oxy}cyclohexyl)-3-[4-(7H-pyrrolo[2,3-d]pyrimidin-4-yl)-1H-pyrazol-1-yl]azetidin-3-yl}acetonitrile]
>10 | < 10 | C[C@@H](CO)NCc1cc(OC2CCN([C@H]3C[C@](CC#N)(n4cc(-c5ncnc6[nH]ccc56)cn4)C3)CC2)nc(C(F)(F)F)c1 [Compound 23, {trans-3-(4-{[4-({[(1S)-2-hydroxy-1-methylethyl]amino}methyl)-6-(trifluoromethyl)pyridin-2-yl]oxy}piperidin-1-yl)-1-[4-(7H-pyrrolo[2,3-d]pyrimidin-4-yl)-1H-pyrazol-1-yl]cyclobutyl}acetonitrile]
>10 | < 10 | C[C@@H](O)CNCc1cc(OC2CCN([C@H]3C[C@](CC#N)(n4cc(-c5ncnc6[nH]ccc56)cn4)C3)CC2)nc(C(F)(F)F)c1 [Compound 24, {trans-3-(4-{[4-({[(2R)-2-hydroxypropyl]amino}methyl)-6-(trifluoromethyl)pyridin-2-yl]oxy}piperidin-1-yl)-1-[4-(7H-pyrrolo[2,3-d]pyrimidin-4-yl)-1H-pyrazol-1-yl]cyclobutyl}acetonitrile]
>10 | < 10 | C[C@H](O)CNCc1cc(OC2CCN([C@H]3C[C@](CC#N)(n4cc(-c5ncnc6[nH]ccc56)cn4)C3)CC2)nc(C(F)(F)F)c1 [Compound 25, {trans-3-(4-{[4-({[(2S)-2-hydroxypropyl]amino}methyl)-6-(trifluoromethyl)pyridin-2-yl]oxy}piperidin-1-yl)-1-[4-(7H-pyrrolo[2,3-d]pyrimidin-4-yl)-1H-pyrazol-1-yl]cyclobutyl}acetonitrile]
>10 | < 10 | N#CC[C@]1(n2cc(-c3ncnc4[nH]ccc34)cn2)C[C@H](N2CCC(Oc3cc(CCO)cc(C(F)(F)F)n3)CC2)C1 [Compound 26, {trans-3-(4-{[4-(2-hydroxyethyl)-6-(trifluoromethyl)pyridin-2-yl]oxy}piperidin-1-yl)-1-[4-(7H-pyrrolo[2,3-d]pyrimidin-4-yl)-1H-pyrazol-1-yl]cyclobutyl}acetonitrile]
